Experimental data from US20220378802A1, “TREATMENT OF ALCOHOLIC HEPATITIS” (Durect Corporation, priority 2019, published 2022).
“Also recorded” adds a separate entry of the source. Read-outs that look alike come from different tables or passages of the source.

Experiments:
[1] = Pharmacokinetics of 25HC3S in alcoholic hepatitis patients (Phase 2a, IV infusion); assay type: in vivo, human; conditions: for PK parameters, moderate versus severe AH groups: comparison at the same dose; for half-life / clearance / Tmax / AUC(0-inf) / Cmax: human, plasma
Description: All patients received IV infused 25HC3S (at 30, 90, or 150 mg) on Day 1 and Day 4 (if still hospitalized), and were followed for 28-days. The final enrollment was 19 patients comprised of: 8 patients (4 moderate and 4 severe) dosed at 30 mg, 7 patients (3 moderate and 4 severe) dosed at 90 mg, and 4 patients (4 severe) dosed at 150 mg. • Study Drug A 25HC3S sodium salt solution contained: • 30 mg/mL 25HC3S sodium salt; • 240 mg/mL hydroxypropyl-beta-cyclodextrin; and • 50 mmole phosphate buffer • The 25HC3S sodium salt solution was diluted in 100 mL 5% dextrose or 0.9% sodium chloride infusion solution: • Dose 1: 30 mg of 25HC3S sodium salt in 100 mL 5% dextrose or 0.9% sodium chloride • Dose 2: 90 mg of 25HC3S sodium salt in 100 mL 5% dextrose or 0.9% sodium chloride • Dose 3: 150 mg of 25HC3S sodium salt in 100 mL 5% dextrose or 0.9% sodium chloride • 25HC3S sodium salt was administered by slow intravenous infusion over 2 hrs (50 mL/h) until the entire dose is given at Day 1 and Day 4. If a patient met the hospital discharge criteria prior to the second dose, the patient received only one dose instead of two doses. • Study Procedure The study was conducted in two parts. Part A included patients with MELD scores of 11-20 (moderate AH patients), and Part B included patients with MELD of scores 21-30. The doses of 25HC3S sodium salt administered were 30 mg and 90 mg for Part A and 30 mg, 90 mg and 150 mg for Part B, with 4 patients per dose group per Part (except for only 3 patients in the 90 mg cohort of Part A). All patients were followed to Day 28. • The study started in 4 moderate AH patients (Part A) at 30 mg dose level. After completing the dosing, a Dose Escalation Committee (DEC) reviewed safety, tolerability and pharmacokinetic (PK) data from all 4 patients and determined that it was safe to move forward to dose 4 severe AH patients (Part B) at the same dose level, 30 mg, as well as escalating the dose level to 90 mg in moderate patients (Part A). The same dose escalation procedure was then conducted in Part B until all 4 patients received 150 mg doses. • A flow diagram of the study is depicted in FIG. 2. Each dose cohort enrolled up to 4 subjects. Study subjects received up to 2 doses of 25HC3S sodium salt. The first dose was administered on Day 1 and, if still hospitalized, the second dose was administered on Day 4. A pharmacokinetic (PK) sample was collected at: Time 0 (pre-dose), 1 hour post-dose initiation, 2 hours (end of infusion), 3 hours post-dose initiation, 4 hours post-dose initiation, 8 hours post-dose initiation, 12 hours post-dose initiation, 24-hours post-dose initiation and 50 hours post-dose initiation. • Evaluation: Assessment of Pharmacodynamic (PD) Signals: • Change in Lille score, MELD score, biochemistry (such as bilirubin) • Method and Timing • Lille score was calculated at Day 7 • MELD score was calculated at Screening, Day 1 (pre-dose), Day 7 and Day 28 • Biochemistry and all safety lab parameters were collected at Screening, Day 1 and Day 4 at pre-dose, Day 1 and Day 4 at 12 hrs after dose completion/end of infusion, Day 2, Day 7, Day 28, and if hospitalized on Days 3, 4, 5, and 6. • Assessment of Safety Signals: • Safety was determined based on clinical and laboratory monitoring. • Assessment of PK: • Plasma concentration data of 25HC3S from each patient were used to calculate relevant PK parameters determined using a standard linear/log-trapezoidal rule non-compartmental method with an appropriate PK data analysis program. • The time points for PK sample collection were (after Dose 1 only): 0 (pre-dose), 1 hr post-dose initiation, 2 hrs (end of infusion), 3, 4, 8, 12, 24 hrs post-dose

[2] = tested on: patients with alcoholic hepatitis; test: Safety and tolerability in Phase 2a trial; assay type: in vivo, human; conditions: all AH patients
Description: All patients received IV infused 25HC3S (at 30, 90, or 150 mg) on Day 1 and Day 4 (if still hospitalized), and were followed for 28-days. The final enrollment was 19 patients comprised of: 8 patients (4 moderate and 4 severe) dosed at 30 mg, 7 patients (3 moderate and 4 severe) dosed at 90 mg, and 4 patients (4 severe) dosed at 150 mg. • Study Drug A 25HC3S sodium salt solution contained: • 30 mg/mL 25HC3S sodium salt; • 240 mg/mL hydroxypropyl-beta-cyclodextrin; and • 50 mmole phosphate buffer • The 25HC3S sodium salt solution was diluted in 100 mL 5% dextrose or 0.9% sodium chloride infusion solution: • Dose 1: 30 mg of 25HC3S sodium salt in 100 mL 5% dextrose or 0.9% sodium chloride • Dose 2: 90 mg of 25HC3S sodium salt in 100 mL 5% dextrose or 0.9% sodium chloride • Dose 3: 150 mg of 25HC3S sodium salt in 100 mL 5% dextrose or 0.9% sodium chloride • 25HC3S sodium salt was administered by slow intravenous infusion over 2 hrs (50 mL/h) until the entire dose is given at Day 1 and Day 4. If a patient met the hospital discharge criteria prior to the second dose, the patient received only one dose instead of two doses. • Study Procedure The study was conducted in two parts. Part A included patients with MELD scores of 11-20 (moderate AH patients), and Part B included patients with MELD of scores 21-30. The doses of 25HC3S sodium salt administered were 30 mg and 90 mg for Part A and 30 mg, 90 mg and 150 mg for Part B, with 4 patients per dose group per Part (except for only 3 patients in the 90 mg cohort of Part A). All patients were followed to Day 28. • The study started in 4 moderate AH patients (Part A) at 30 mg dose level. After completing the dosing, a Dose Escalation Committee (DEC) reviewed safety, tolerability and pharmacokinetic (PK) data from all 4 patients and determined that it was safe to move forward to dose 4 severe AH patients (Part B) at the same dose level, 30 mg, as well as escalating the dose level to 90 mg in moderate patients (Part A). […]

[3] = AH vs healthy subjects, 150 mg, ↑
[4] = AH vs healthy subjects, 150 mg, ↓
[5] = iv, 30 mg, Moderate AH, cohort 1A, 30 mg IV infusion, N=3
[6] = iv, 30 mg, Severe AH, cohort 1B, 30 mg IV infusion, N=4
[7] = iv, 90 mg, Moderate AH, cohort 2A, 90 mg IV infusion, N=3
[8] = iv, 90 mg, Severe AH, cohort 2B, 90 mg IV infusion, N=4
[9] = iv, 150 mg, Severe AH, cohort 3B, 150 mg IV infusion, N=4
[10] = same dose level, single dose of 150 mg

SMILES: C[C@H](CCCC(C)(C)O)[C@H]1CC[C@H]2[C@@H]3CC=C4C[C@@H](OS(=O)(=O)O)CC[C@]4(C)[C@H]3CC[C@]12C [25HC3S, 5-cholesten-3,25-diol, 3-sulfate]
- drug exposure (AUC and Cmax) versus dose ([1]; AH patients, 30, 90, 150 mg): dose proportional
- Time to maximum drug concentrations (Tmax) ([1]; AH patients, 2 hour IV infusion): at the end of 2 hour infusion
- Fold Change in PK: AUCinf [1, 3]: ↑ ~5×
- Fold Change in PK: Cmax [1, 3]: ↑ 2×
- Fold Change in PK: T½ [1, 3]: ↑ 2×
- Fold Change in PK: CL [1, 4]: ↓ 0.25×
- Fold Change in PK: V [1, 4]: ↓ 0.5×
- V ([1]; Moderate AH, cohort 1A, 30 mg IV infusion, N=3): 24.8 (1.6) L
- V ([1]; Moderate AH, cohort 2A, 90 mg IV infusion, N=3): 25.8 (10.5) L
- V ([1]; Severe AH, cohort 1B, 30 mg IV infusion, N=4): 26.1 (4.9) L
- V ([1]; Severe AH, cohort 2B, 90 mg IV infusion, N=4): 35.3 (10.8) L
- V ([1]; Severe AH, cohort 3B, 150 mg IV infusion, N=4): 27.8 (5.9) L
- PK parameters, moderate versus severe AH groups [1]: uninfluenced by the severity of the disease; also recorded: similar
- PK parameters, moderate versus severe AH groups ([1]; listed as 25HC3S sodium): similar
- systemic clearance, fold lower in AH patients compared to healthy subjects ([1]; for a given dose): about 5 fold
- decrease of clearance in AH patients compared to healthy subjects ([1]; healthy subjects from an earlier study): 80%
- half-life ([1]; intravenous, AH patients, range over groups, read-out: half-life (t1/2)): 4 to 6 h
- clearance ([1]; intravenous, AH patients, read-out: Mean clearance): 83.3 to 117 mL/min
- Tmax ([1]; iv, 30 mg, Moderate AH, cohort 1A, 30 mg IV infusion over 2 h, after Dose 1, N=3): 2.2 h
- AUC(0-inf) [1, 5]: 6540 ng·h/mL
- Cmax [1, 5]: 1280 ng/mL
- clearance ([1]; iv, 30 mg, Moderate AH, cohort 1A, 30 mg IV infusion, N=3, read-out: CL (converted)): 98.3 mL/min
- half-life ([1]; iv, 30 mg, Moderate AH, cohort 1A, 30 mg IV infusion, N=3, read-out: T½ (converted)): 3.7 h
- AUC(0-inf) [1, 6]: 7720 ng·h/mL
- Cmax [1, 6]: 1340 ng/mL
- Tmax [1, 6]: 1.8 h
- clearance ([1]; iv, 30 mg, Severe AH, cohort 1B, 30 mg IV infusion, N=4, read-out: CL (converted)): 68.3 mL/min
- half-life ([1]; iv, 30 mg, Severe AH, cohort 1B, 30 mg IV infusion, N=4, read-out: T½ (converted)): 1.8 h
- AUC(0-inf) [1, 7]: 14300 ng·h/mL
- Cmax [1, 7]: 3630 ng/mL
- Tmax [1, 7]: 2 h
- clearance ([1]; iv, 90 mg, Moderate AH, cohort 2A, 90 mg IV infusion, N=3, read-out: CL (converted)): 110 mL/min
- half-life ([1]; iv, 90 mg, Moderate AH, cohort 2A, 90 mg IV infusion, N=3, read-out: T½ (converted)): 2.7 h
- AUC(0-inf) [1, 8]: 20400 ng·h/mL
- Cmax [1, 8]: 3290 ng/mL
- Tmax [1, 8]: 2.3 h
- clearance ([1]; iv, 90 mg, Severe AH, cohort 2B, 90 mg IV infusion, N=4, read-out: CL (converted)): 91.7 mL/min
- half-life ([1]; iv, 90 mg, Severe AH, cohort 2B, 90 mg IV infusion, N=4, read-out: T½ (converted)): 5.1 h
- AUC(0-inf) [1, 9]: 27100 ng·h/mL
- Cmax [1, 9]: 6820 ng/mL
- Tmax [1, 9]: 2.1 h
- clearance ([1]; iv, 150 mg, Severe AH, cohort 3B, 150 mg IV infusion, N=4, read-out: CL (converted)): 96.7 mL/min
- half-life ([1]; iv, 150 mg, Severe AH, cohort 3B, 150 mg IV infusion, N=4, read-out: T½ (converted)): 3.4 h
- increase in AUC in AH patients compared to healthy subjects [1, 10]: about 5 fold
- increase in Cmax in AH patients compared to healthy subjects [1, 10]: 2 fold
- safety / tolerability ([2]; 30, 90, 150 mg): safe and well tolerated
- serious adverse events ([2]; 30, 90, 150 mg): no drug-related serious adverse events; also recorded: no treatment emergent serious adverse events; also recorded: no serious adverse effects related to 25HC3S
- discontinuations, early withdrawal or termination due to adverse effects [2]: no discontinuations, early withdrawal or termination
